This note sets out measurements from patent US10160772B2, “5,6-dihydro-4H-benzo[b]thieno-[2,3-d]azepine derivatives” (PULMOCIDE LIMITED, priority 2014, dated 2018).

By IC50 is commonly meant the point on the concentration scale where inhibition reaches its midpoint. One may read the inhibition as the percentage by which the read-out fell short of the control. As a reminder, the CC50 is the concentration that lowers cell viability or growth by half. A low value points to harm at low concentration.

Common to all, as to format: cell-based
The subject of one data set is RSV A2 strain. Description: RSV A2-induced CPE in Hep2 cells. Conditions: human respiratory syncytial virus, Hep2 cells; for IC50: HEp-2, 120 h, RSV A2 1 MOI, 5 days, resazurin, read-out: RSV A2 CPE IC50; for inhibition at 0.01 µg/mL / inhibition at 0.1 µg/mL: HEp-2, read-out: RSV A2 CPE % Inhibition; for inhibition at 0.01 µg/mL: at 0.01 μg/mL (footnote 2); for inhibition at 0.1 µg/mL: at 0.1 μg/mL. On the procedure:
(§1) Biological Testing: Experimental Methods Assessment of RSV Induced CPE in Hep2 Cells
(§2) Hep2 cells were seeded (10^3/well/50 μL) in 384-well plates (Catalogue number 353962, BD Falcon, Oxford, UK) in 5% serum free-DMEM containing 2 mM L-glutamine and 1 mM sodium pyruvate one day before infection. RSV A2 strain (#0709161v, NCPV, Public Health England, Wiltshire) or RSV B Washington strain (VR-1580, ATCC, Manassas, Va. 20108) virus solutions were prepared in serum free-DMEM with 2 mM L-glutamine and 1 mM sodium pyruvate, and then added (50 μL/well) to achieve a final virus concentration of 1 MOI for RSV A and 0.1MOI for RSV B. Simultaneously test compounds (0.5 μL DMSO solution) were added to 100 μL of Hep2 cell culture with virus solution to provide a final DMSO solution of 0.5%. Plates were incubated (37° C./5% CO2) for 5 days for studies using RSV A2 strain or 6 days for those using RSV B strain, and then resazurin sodium salt (5 μL of 0.03% solution; Sigma-Aldrich, Dorset, UK) was added to each well and the plate incubated for a further 6 hr (37° C. and 5% CO2). The fluorescence of each well [545 nm (excitation)/590 nm (emission)] was determined using a multi-scanner (Clariostar: BMG, Buckinghamshire, UK). The percentage inhibition for each well was calculated and the IC50, IC75 and IC90 values were calculated from the concentration-response curve generated for each test compound.
Background: Alamar Blue is a resazurin reagent that responds to reducing activity.

For a further data set, the system named is RSV B Washington strain. In words: RSV B-induced CPE in Hep2 cells. Conditions: human respiratory syncytial virus, Hep2 cells; for IC50: HEp-2, 144 h, RSV B Washington 0.1 MOI, 6 days, resazurin, read-out: RSV B CPE IC50; for inhibition at 1 µg/mL: HEp-2, at 1 μg/mL, read-out: RSV B CPE % Inhibition. On the procedure:
as §1, §2

Data set [1] deals with RSV A2 F-protein expression. Description: RSV A2 F-protein expression in BEAS2B bronchial epithelial cells. The note with it: human respiratory syncytial virus, BEAS-2B, 72 h, read-out: RSV A2 F-protein IC50. How it is done: Assessment of RSV F Protein Expression in BEAS2B Bronchial Epithelial Cells
An early event which follows the infection of epithelial cells by RSV is the expression of RSV F-protein on the cells' surface. BEAS2B cells (SV40-immortalised human bronchial epithelial cell line) were grown in 96 well plates. Once more than 70% confluent, cells were infected with RSV A2 (#0709161v, NCPV, Public Health England, Wiltshire) at an MOI of 0.01 in clear RPMI-1640 medium (Life technologies, Paisley, UK) with 2% FBS (Life technologies, Paisley, UK), and incubated for 3 days (37° C./5% CO2).
Supernatant was aspirated and the cells were fixed with 4% formaldehyde (100 μL in PBS solution) for 20 min, washed 3 times with washing buffer (200 μL; PBS containing 0.05% Tween-20) and incubated with blocking solution (100 μL; 5% Marvel milk in PBS) for 1 hr. Cells were then washed with washing buffer (200 μL) and incubated for 1 hr at 37° C. with anti-RSV (2F7; mouse monoclonal, lot 160290, Cat. No. ab43812, Abcam plc, Cambridge, UK) F-fusion protein antibody (50 μL; prepared at a 1:1000 dilution in 5% milk/PBS-tween). After washing, cells were incubated with an HRP-conjugated anti-mouse IgG antibody (50 μL prepared at a 1:2000 dilution in 5% milk in PBS; lot 00095437, Cat. No. P0447, Dako UK Ltd, Cambridgeshire, UK) for 1 hr. Cells were washed twice with washing buffer and once with PBS. TMB substrate (100 μL; substrate reagent pack lot 320436, Cat. No. DY999, R&D Systems, Inc. Abingdon, UK) was then added and the reaction was stopped by the addition of aq sulfuric acid (50 μL; 2N). The resultant signal was determined colourimetrically (OD: 450 nm with a reference wavelength of 655 nm) in a microplate reader (Multiskan FC®, ThermoFisher Scientific). Cells were then washed and 1% crystal violet solution (50 μL; lot SLB4576, Cat. No. HT90132-1L, Sigma-Aldrich) was applied for 30 min. After washing with PBS (200 μL) 3 times, 1% SDS (100 μL) was added to each well, and plates were shaken lightly for 1 hr prior to reading the absorbance at 595 nm. The measured OD450-655 readings were corrected for cell number by dividing the OD450-655 by the OD595 readings. The percentage inhibition for each well was calculated and the IC50 value derived from the concentration-response curve generated for each test compound.

Data set [2] can be described thus: Cell viability: resazurin assay in Hep2 cells. Conditions: human, 5 days incubation. On the procedure:
Cell Viability: Resazurin Assay Hep2 cells were seeded in 384-well plates (10^3/well/50 μL; BD Falcon Ref 353962) in FBS DMEM (5%, containing 2 mM L-glutamine and 1 mM sodium pyruvate) one day before experimentation. Serum-free DMEM (50 μL) was added to test wells while for control wells the media was removed and sterile water (100 μL) was added. Test compounds (0.5 μL DMSO solution) were added to give a final DMSO concentration of 0.5%. Hep2 cells were incubated with each test compound for 5 days (37° C./5% CO2 in 5% FBS) and then resazurin stock solution (5 μL; 0.03%) was added to each well and the plate incubated further for a further 6 hrs (37° C./5% CO2). The fluorescence of each well at 545 nm (excitation) and 590 nm (emission) was determined using a multi-scanner (Clariostar: BMG Labtech). The percentage loss of cell viability was calculated for each well relative to vehicle (0.5% DMSO) treatment. Where appropriate, a CC50 value was calculated from the concentration-response curve generated from the concentration-response curve for each test compound.

Turning to `Cc1ccc(C(=O)Nc2ccc(C(=O)N3CCc4cc(-c5nc6ccccc6[nH]5)sc4-c4ccccc43)cc2)c(N2CC3(CCOCC3)C2)n1` [Example 2, N-(4-(2-(1H-Benzo[d]imidazol-2-yl)-5,6-dihydro-4H-benzo[b]thieno[2,3-d]azepine-6-carbonyl)phenyl)-6-methyl-2-(7-oxa-2-azaspiro[3,5]nonan-2-yl)nicotinamide], in the data set with RSV A2 strain, the IC50 amounted to 0.23 nM and the inhibition at 0.01 µg/mL amounted to 90%. Moreover, in the data set on RSV B Washington strain, the IC50 came out at 9.6 nM and the inhibition at 1 µg/mL worked out at 100%. The IC50 in data set [1] was found to be 1.6 nM. In data set [2], this compound yielded a CC50 at 5 days of over 14700 nM.
For `Cc1ccc(C(=O)Nc2ccc(C(=O)N3CCc4cc(-c5nc6cccc(F)c6[nH]5)sc4-c4ccccc43)cc2)c(N2CC3(CCOCC3)C2)n1` [Example 20, N-(4-(2-(7-fluoro-1H-benzo[d]imidazol-2-yl)-5,6-dihydro-4H-benzo[b]thieno[2,3-d]azepine-6-carbonyl)phenyl)-6-methyl-2-(7-oxa-2-azaspiro[3.5]nonan-2-yl)nicotinamide], in the data set on RSV A2 strain, the IC50 is 0.094 nM and the inhibition at 0.1 µg/mL was 100%. For the same compound, in the data set with RSV B Washington strain, the IC50 was found to be 7.6 nM and the inhibition at 1 µg/mL is 100%. Besides, the CC50 at 5 days in data set [2] was over 14300 nM.
`COc1ccc(C(=O)Nc2ccc(C(=O)N3CCc4cc(-c5nc6ccccc6[nH]5)sc4-c4ccccc43)cc2)c(N2CC3(CCOCC3)C2)n1` [Example 21, N-(4-(2-(1H-benzo[d]imidazol-2-yl)-5,6-dihydro-4H-benzo[b]thieno[2,3-d]azepine-6-carbonyl)phenyl)-6-methoxy-2-(7-oxa-2-azaspiro[3.5]nonan-2-yl)nicotinamide]: in the data set with RSV A2 strain, the IC50 was determined as 0.21 nM and the inhibition at 0.1 µg/mL came to 100%. In the data set with RSV B Washington strain, the IC50 came out at 45.2 nM and the inhibition at 1 µg/mL was 100%. Further, the CC50 at 5 days in data set [2] was over 14400 nM.
With `Cc1cc(C(=O)Nc2ccc(C(=O)N3CCc4cc(-c5nc6cccc(F)c6[nH]5)sc4-c4ccccc43)cc2)c(N2CC3(CCOCC3)C2)nc1C` [Example 22, N-(4-(2-(7-fluoro-1H-benzo[d]imidazol-2-yl)-5,6-dihydro-4H-benzo[b]thieno[2,3-d]azepine-6-carbonyl)phenyl)-5,6-dimethyl-2-(7-oxa-2-azaspiro[3.5]nonan-2-yl)nicotinamide], in the data set on RSV A2 strain, the IC50 is 1.6 nM and the inhibition at 0.01 µg/mL came out at 90%. Moreover, in the data set on RSV B Washington strain, the IC50 was found to be 14 nM and the inhibition at 1 µg/mL was found to be 100%. The same compound registered a CC50 at 5 days in data set [2] of over 14000 nM.
As for `Cc1cc(C(=O)Nc2ccc(C(=O)N3CCc4cc(-c5nc6cccc(Cl)c6[nH]5)sc4-c4ccccc43)cc2)c(N2CC3(CCOCC3)C2)nc1C` [Example 23, N-(4-(2-(7-chloro-1H-benzo[d]imidazol-2-yl)-5,6-dihydro-4H-benzo[b]thieno[2,3-d]azepine-6-carbonyl)phenyl)-5,6-dimethyl-2-(7-oxa-2-azaspiro[3.5]nonan-2-yl)nicotinamide], in the data set on RSV A2 strain, the IC50 was 0.75 nM and the inhibition at 0.1 µg/mL came to 100%. In the data set on RSV B Washington strain, the IC50 is 103 nM and the inhibition at 1 µg/mL came to 100%. This compound registered a CC50 at 5 days in data set [2] of over 13700 nM.
As to `Cc1cc(C(=O)Nc2ccc(C(=O)N3CCc4cc(-c5nc6cccc(C)c6[nH]5)sc4-c4ccccc43)cc2)c(N2CC3(CCOCC3)C2)nc1C` [Example 24], in the data set with RSV A2 strain, the IC50 was 0.85 nM and the inhibition at 0.1 µg/mL is 100%. For the same compound, in the data set with RSV B Washington strain, the IC50 is 27.3 nM and the inhibition at 1 µg/mL turned out to be 100%. In data set [2], this compound gave a CC50 at 5 days of over 14100 nM.
Turning to `Cc1cc(C(=O)Nc2ccc(C(=O)N3CCc4cc(-c5nc6cccc(C#N)c6[nH]5)sc4-c4ccccc43)cc2)c(N2CC3(CCOCC3)C2)nc1C` [Example 25, N-(4-(2-(7-cyano-1H-benzo[d]imidazol-2-yl)-5,6-dihydro-4H-benzo[b]thieno[2,3-d]azepine-6-carbonyl)phenyl)-5,6-dimethyl-2-(7-oxa-2-azaspiro[3.5]nonan-2-yl)nicotinamide], in the data set with RSV A2 strain, the IC50 is 0.69 nM and the inhibition at 0.01 µg/mL is 100%. Moreover, in the data set with RSV B Washington strain, the IC50 was 15.8 nM and the inhibition at 1 µg/mL amounted to 100%. In data set [2], this compound showed a cytotoxic concentration (CC50) at 5 days of over 13900 nM.
Turning to `Cc1cnc(N2CC3(CCOCC3)C2)c(C(=O)Nc2ccc(C(=O)N3CCc4cc(-c5nc6ccccc6[nH]5)sc4-c4ccccc43)c(F)c2)c1` [Example 26, N-(4-(2-(1H-benzo[d]imidazol-2-yl)-5,6-dihydro-4H-benzo[b]thieno[2,3-d]azepine-6-carbonyl)-3-fluorophenyl)-5-methyl-2-(7-oxa-2-azaspiro[3.5]nonan-2-yl)nicotinamide], in the data set on RSV A2 strain, the IC50 was determined as 0.27 nM and the inhibition at 0.01 µg/mL was determined as 100%. In the data set on RSV B Washington strain, the IC50 amounted to 12 nM and the inhibition at 1 µg/mL stood at 100%. The compound further registered a CC50 at 5 days in data set [2] of over 14300 nM.
For `Cc1cnc(N2CC3(CCOCC3)C2)c(C(=O)Nc2ccc(C(=O)N3CCc4cc(-c5nc6cccc(C)c6[nH]5)sc4-c4ccccc43)c(F)c2)c1` [Example 27, N-(3-fluoro-4-(2-(7-methyl-1H-benzo[d]imidazol-2-yl)-5,6-dihydro-4H-benzo[b]thieno[2,3-d]azepine-6-carbonyl)phenyl)-5-methyl-2-(7-oxa-2-azaspiro[3.5]nonan-2-yl)nicotinamide], in the data set with RSV A2 strain, the IC50 is 0.29 nM and the inhibition at 0.1 µg/mL was 90%. Also, in the data set on RSV B Washington strain, the half-inhibitory concentration (IC50) was determined as 15 nM and the inhibition at 1 µg/mL turned out to be 80%. This compound registered a CC50 at 5 days in data set [2] of over 14000 nM.
